The text below walks through data of ChEMBL document CHEMBL5036381, “Novel Plasma Kallikrein Inhibitors for Treating Hereditary Angioedema, Diabetic Macular Edema, and Diabetic Retinopathy” (ACS Med Chem Lett, 2022).

A word on the IC50: it is the concentration that gives 50% inhibition. Read a high IC50 as weaker potency in that assay.

In the assay the target is Plasma kallikrein (Homo sapiens, UniProt P03952). Nature of the assay: Inhibition of human plasma kallikrein using fluorogenic substrate measured by microplate reader analysis. The format is cell-free.
Chain of Plasma kallikrein (P03952 20-390 limits assumed): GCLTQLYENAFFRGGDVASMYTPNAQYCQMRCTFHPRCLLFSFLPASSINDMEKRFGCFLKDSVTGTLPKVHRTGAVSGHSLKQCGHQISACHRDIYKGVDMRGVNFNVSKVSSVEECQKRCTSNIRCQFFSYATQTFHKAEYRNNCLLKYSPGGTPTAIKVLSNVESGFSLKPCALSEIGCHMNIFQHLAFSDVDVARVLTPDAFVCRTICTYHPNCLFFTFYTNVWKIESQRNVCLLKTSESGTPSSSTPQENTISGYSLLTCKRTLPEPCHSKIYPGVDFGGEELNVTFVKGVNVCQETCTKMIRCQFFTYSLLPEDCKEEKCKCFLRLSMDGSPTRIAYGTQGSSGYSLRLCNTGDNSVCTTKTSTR
Chain of Plasma kallikrein (P03952 391-638 limits assumed): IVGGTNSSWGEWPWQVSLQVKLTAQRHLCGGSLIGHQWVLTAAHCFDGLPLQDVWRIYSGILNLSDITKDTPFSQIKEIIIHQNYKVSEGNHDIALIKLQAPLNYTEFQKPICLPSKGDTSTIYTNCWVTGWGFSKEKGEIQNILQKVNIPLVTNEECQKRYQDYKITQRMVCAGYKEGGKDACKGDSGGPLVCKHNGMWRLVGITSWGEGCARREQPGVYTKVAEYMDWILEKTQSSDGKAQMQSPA

Consider `Cc1c([C@H](C)n2cc(NC(=O)c3cncc(-c4c(C(F)F)ccc(Cl)c4F)n3)cn2)cnc(N2C[C@H]3C[C@H]3C2=O)c1F`, for which the half-inhibitory concentration (IC50) turned out to be 0.3 nM. `COc1c(N2C[C@H]3C[C@H]3C2=O)ncc(C(C)n2cc(NC(=O)c3cncc(-c4c(C(F)F)ccc(Cl)c4F)n3)cn2)c1C` (some centres not stated) had an IC50 of 0.3 nM.
